Test results as given in US20070196914A1, “Methods for preparing oil bodies comprising active ingredients” (SemBioSys Genetics Inc., priority 2003, published 2007).

How the values were obtained:
[1] = Partitioning of active into washed safflower oil bodies (free oil / total oil extraction, HPLC or absorbance); format: physicochemical, safflower (Carthamus tinctorius); parameters: level of active incorporated into the oil bodies as a percentage of dry weight: concentration or dose not given beside the values; settings: two-solvent loading, incubated overnight at 34-37° C. (CP 34-42° C.)
Source text: Hexane extraction may be used to determine the amount of active present in the free oil (free oil is defined as oil not contained within oil bodies. Note that the intact oil bodies are largely resistant to extraction by hexane alone). (Tzen et al. (1997) J. Biochem 121: 762-768.) Once the free oil has been removed from the active/oil body fraction, an analysis of the total remaining oil may be performed using for example, hexane:isopropanol, chloroform, or chloroform:methanol solution extraction. The amount of active present in both the free oil fraction and the total oil fraction can be determined by a number of methods including, but not limited to, high performance liquid chromatography (HPLC), spectrophotometry, fluorescence, or activity assays depending on the active. By comparing the amount of active in both the free oil fraction and the total oil fraction the average amount of active incorporated into the intact oil bodies can be determined. In general, the efficiency of partitioning of the active into intact oil bodies can range from about 10 to about 99.9%. More typically however the efficiency of partitioning of the active into intact oil bodies will range from about 50 to about 99% and most typically from about 90 to about 99.
Washed safflower oil bodies were prepared as described in example 1. Oil bodies were preserved with 0.1 % Neolone 950 and 0.1 % glycacil L. Clobetasol propionate (CP) (Supplier-Sigma) was weighed (12-30 mg) into a clean and dry 16×100 mm screw-cap Pyrex test tube and mixed with 300 μl of isopropanol then 200 mg of safflower oil. The combined sample was vortexed and subsequently incubated at 34° C. for 20 minutes. After incubation, the sample was re-vortexed then dried under nitrogen for 20 minutes to remove the isopropanol. One ml of washed high dry weight oil bodies were added to the CP/safflower oil mixture at room temperature, centrifuged briefly to pellet contents to allow for thorough mixing, vortexed and further incubated at 34-42° C. overnight in an air tight tube to allow for incorporation of the CP and safflower oil into the oil bodies. A hexane extraction was used to determine the amount of CP present in the free oil (free oil is defined as oil not contained within oil bodies. Note that the intact oil bodies are largely resistant to extraction by hexane alone but all hexane extractions of loaded oil bodies must be corrected for damage done to intact oil bodies by the hexane through corrections using free oil values obtained from unloaded oilbodies). Three ml of hexane are added to the tubes and the tubes are shaken to mix 32 times. The samples are centrifuged in a swinging bucket clinical centrifuge at 3220×g for one minute to separate hexane from the oil body-aqueous phase. Note that the free oil will remain in the hexane layer (top). The hexane layer is removed to another tube and the hexane extraction is repeated on the remaining CP/oil body mixture. Once the majority of the solvent from the second extraction is added to the tube containing the first extract, the hexane containing tube is transferred to a heating block. The hexane was evaporated by subjecting the tubes to a gentle stream of high purity N2 gas while heating the block to 40-45° C. for at least 1.5 hours. Once the free oil was removed from the CP/oil body fraction, an analysis of the total remaining oil was performed. The remaining total oil in intact oil bodies was determined by adding 4 ml of a 3:2 hexane:isopropanol solution (HIP) and shaking to mix vigorously until all of the oil was dissolved in the HIP solvent (about 10-20 seconds). This was followed by the addition of 2.5 ml of 6.67% Na2SO4 (w/v) to the tube and the tube was shaken for another 10 seconds. Phase separation is facilitated by centrifugation for 2 minutes at 3220×g in a swinging bucket clinical centrifuge. The organic or upper phase is removed to a second test tube using a Pasteur pipette while avoiding the transfer of the aqueous phase. […]

[2] = Partitioning of phosphatidylcholine into washed safflower oil bodies (fluorescent tracer); format: physicochemical, safflower (Carthamus tinctorius); settings: average
Description: Washed safflower oil bodies were prepared as described in example 1. Oil bodies were preserved with 0.1% Neolone 950 and 0.1% glycacil L. Phosphatidylcholine (PC, Supplier-Sigma) was weighed (1-300 mg) into a clean and dry 16×100 mm screw-cap Pyrex test tube. A fluorescent tracer (phosphatidic acid, Supplier-Molecular Probes) was added to the PC. The amount used was 0.05-0.25% the weight of the PC of a 1 mg/ml solution of tracer (resuspended following the manufacturer's instructions). 200 ul of isopropanol was added for every 10 mg of PC to dissolve the PC/tracer mixture. Buffer (50 mM NaH2PO4, pH 8.0) was added to the isopropanol mixture using the same buffer (50 mM NaH2PO4, pH 8.0) as the oilbodies were made in. The volume was equivalent to the volume of oilbodies being loaded. The PC/tracer/isopropanol/buffer mixture was sonicated on high for 15-30 seconds. […] Both the wash fractions and the oilbody fractions were assessed for fluorescence quantities after extraction with hexane using a total oil extraction procedure. The total oil extraction was done by adding 4 mls of a 3:2 hexane:isopropanol solution (HIP) to a measured amount of the sample and shaking to mix vigorously until all of the oil was dissolved in the HIP solvent (about 10-20 seconds). […] A known quantity of isopropanol was added to the extracted fractions and the sample was quantitated using a fluorescent spectrophotometer. […]

| level of active incorporated into the oil bodies as a percentage of dry weight [1] [%] | average % of the active added that was incorporated into the intact oil bodies [1] [%] | amount of PC loaded in to the membrane of the oil body, % of the dry weight of the oil body ([2]; isopropanol/phosphate buffer pH 8.0, 37° C., without stearylamine) [%] | amount of PC loaded in to the membrane of the oil body, % of the dry weight of the oil body ([2]; stearylamine included in PC/tracer mixture at approximately 30% of the amount of PC) [%] | Molecule |
| --- | --- | --- | --- | --- |
| 0.316 | 94.7 |  |  | CCC(=O)O[C@]1(C(=O)CCl)[C@@H](C)C[C@H]2[C@@H]3CCC4=CC(=O)C=C[C@]4(C)[C@@]3(F)[C@@H](O)C[C@@]21C [clobetasol propionate, (11β,16β)-21-chloro-9-fluoro-11-hydroxy-16-methyl-17-(1-oxopropoxy)pregna-1,4-diene-3,20-dione] |
| 1.36 | 43.9 |  |  | O=C(O)Cc1ccccc1Nc1c(Cl)cccc1Cl [diclofenac] |
| 0.253 | 97.3 |  |  | O=C1c2c(O)cccc2Cc2cccc(O)c21 [dithranol, 1,8-Dihydroxy-9(10H)-anthracenone] |
| 2.43 | 90.8 |  |  | CCCCNc1ccc(C(=O)OCCN(C)C)cc1 [tetracaine, 4-(butylamino)-Benzoic acid, 2-(dimethylamino)ethyl ester] |
|  |  | 0.12 | 1.25 | Phosphatidylcholine [PC] |
